# Columns and labels:
# SOD = SOD activity of brain tissues from Aβ(25-35)-induced dementia rats; assay type: in vivo, Male Wistar rats; settings: Aβ(25-35) rats; for SOD activity in the cortex: 2 weeks, vehicle 286.8±18.3
# Description: The biochemical assays were conducted later (in 24 h) after behavioral testing. Eight rats in each group were anesthetized with ether and sacrificed. The brains were quickly removed and cleaned with ice-cold saline. Then the parietal cortex and hippocampus were isolated. For biochemical analysis, the tissues were weighed and homogenized in ice-cold saline with the proportion of 1:9 (w/v). Homogenization (IKA, Germany) was carried out for 2 min in an ice bath. After the homogenates were centrifuged at 2,000×g for 10 min at 4° C. (Sigma, Germany), the supernatant was used for analytical procedures. The levels of choline acetyltransferase (ChAT) SOD, and MDA activities were determined with commercial colorimetric assay kits (Nanjing Jiancheng Bioengineering Institute, China). The content of protein in the supernatant was determined by Bradford method using BSA as standard.
# Rats were divided into four experimental groups randomly (10 rats/each group): one sham-operated group, one vehicle control group, and two dl-PHPB-treated groups (39, and 129 mg/kg). At 1 days after operation, drugs and vehicle were administered orally to rats for 14 days (one time/each day). The spatial learning and memory abilities of rats were detected by Morris water maze in the 9-12 days after operation. The testing of Morris water was commenced at 40 min after drugs treated. The biochemical and pathology assays conducted later (in 24 h) after behavioral testing.
# The methods as described previously.
# GFAP = GFAP immunohistochemistry, activated astrocytes of 2-VO rats; assay type: in vivo, rat
# Description: (§1) The method for tissue fixation was described above. Serial coronal sections (40 μm) of the brains were cut through the dorsal hippocampus on a freezing microtome and collected in 6-well plates containing 0.01 M PBS. The detection of GFAP and BDNF immunoreactivity was performed using a conventional avidin-biotin-immunoperoxidease technique.
# (§2) For quantitative analysis, one from every five samples in a continuous series of hippocampal or cortical tissue sections was taken, and was processed immunohistochemically. Thus, three slides were taken from each rat, and were read under an objective (×1.6) microscope. The total area of positively stained neurons was counted with Image-pro Plus 5.0 software.
# Cerebral damage caused by hypoperfusion may be the basis for spatial learning and memory impairment, including earliest white matter damage, accompanied by an increase of astrocytes and microglia activation. Glial fibrillary acidic protein (GFAP) immunohistochemical staining can be used to label the activated astrocytes. 2-3 photos were taken from each selected slices in the same regions. The number of the GFAP positive astrocytes was calculated as the average value of the region. Four anatomical regions were selected to observe: the cortex, hippocampus, corpus callosum and optic tract.
# BDNF = BDNF immunohistochemistry in 2-VO rats; assay type: in vivo, rat; settings: for BDNF expression in hippocampus CA1, CA2, CA3 area: 21 days
# Description: as §1, §2
# [1] = system: corpus callosum and optic tract of 2-VO rats; assay: Klüver-Barrera staining in 2-VO rats; assay type: in vivo, rat; settings: for improvement of pathological damage of the corpus callosum, K-B staining: 21 days, rank among doses
# Description: Four rats in each group were anesthetized with sodium pentobarbital (100 mg/kg, intraperitoneal injection), and perfused transcardially with cold saline, followed by 300 ml of 4% paraformaldehyde in 0.01 M phosphate buffer (pH 7.4). After these procedures, the brains were removed and stored in the 0.01 M phosphate buffer (pH 7.4) with 4% paraformaldehyde and 30% sucrose at 4° C. until fully equilibrated. Then they were postfixed at 4° C., dehydrated and embedded in paraffin blocks. Coronal sections of 8 μm were stained with hematoxylin-eosin and Klüver-Barrera.
# KB staining could reflect the morphological changes of neuronal myelin sheath, and the morphological changes of nerve fibers.
compound,measurement,setting,value
"CCCCC(O)c1ccccc1C(=O)[O-].[K+] (racemic) [dl-PHPB, Potassium 2-(1-Hydroxypentyl)-benzoate]",SOD activity in the cortex,SOD; 39 mg/kg oral,238.2±32.7 U/mg protein
same,SOD activity in the cortex,"SOD; 129 mg/kg oral, P<0.01",185.2±21.6 U/mg protein
same,SOD activity in the hippocampus,SOD; hippocampus,not significantly improved
same,GFAP-positive cells in the hippocampus,"GFAP; administration of 21 days, P<0.05 or P<0.01",significantly less than in the vehicle group
same,GFAP-positive cells in the cortex,"GFAP; administration of 21 days, in particular dl-PHPB 39 mg/kg (P<0.01)",significantly less than in the vehicle group
same,GFAP-positive cells in the optic tract,"GFAP; dl-PHPB 39 mg/kg, 21 days",significantly less than the vehicle group
same,GFAP-positive cells in the hippocampus,"GFAP; dl-PHPB 39 mg/kg, 21 days, P<0.01",most significant effect
same,GFAP positive cells in the corpus callosum,"GFAP; dl-PHPB 39 mg/kg, P<0.05",significantly decreased level of GFAP positive cells
same,GFAP-positive cells in the optic tract,"GFAP; dl-PHPB 129 mg/kg, 21 days",significantly less than the vehicle group
same,GFAP-positive cells in the hippocampus,"GFAP; dl-PHPB 129 mg/kg, 21 days, P<0.01",most significant effect
same,"BDNF expression in hippocampus CA1, CA2, CA3 area","BDNF; dl-PHPB 39 mg/kg, P<0.05 or P<0.01",significantly increased BDNF expression
same,"BDNF expression in hippocampus CA1, CA2, CA3 area",BDNF; dl-PHPB 129 mg/kg,only a trend without statistical significance
same,expression of BDNF in the cortex (staining intensity),"BDNF; strongest at 39 mg/kg, succeeded by 129 mg/kg and 13 mg/kg",increase the expression of BDNF
same,"improvement of pathological damage of the corpus callosum, K-B staining",[1]; dl-PHPB 13 mg/kg,the weakest
same,"pathological changes of the optic tract, K-B staining",[1]; dl-PHPB 39 mg/kg,strong role
same,"improvement of pathological damage of the corpus callosum, K-B staining",[1]; dl-PHPB 39 mg/kg,strongest
same,"pathological changes of the optic tract, K-B staining",[1]; dose not specified,a certain improvement
